Results reported in patent publication US20110077581A1, “TARGETED CELLULAR DELIVERY OF NANOPARTICLES” (GEORGIA TECH RESEARCH CORPORATION, priority 2009, published 2011).
Where two headings read alike, the source gives them in different places.

Experiments:
[1] = cited from earlier work
MCF-7 cells = assay: In vitro laser photothermal therapy of MCF-7 cells; assay type: cell-based, human; details: MCF-7, 0.5 μM, 24 h
Procedure: Following this incubation, cell cultures ere gently rinsed in sterile DPBS buffer and replaced with unmodified growth media prior to laser photothermal treatment. Laser photothermal treatment was performed using the 514.5 nm line of an argon ion laser (Innova 300 Coherent) for 2 min at room temperature (0.32 cm^2). Control cells were similarly removed, however, were untreated with the laser.

[2] = test system: ERα(+) MCF-7 breast cancer cells; assay: Cell viability assay (MTT or XTT) in ERα(+) MCF-7 breast cancer cells; assay type: cell-based, human; details: conjugate as effective TAM-PEG-SH ligand concentration, read-out: IC50 (50% inhibitory concentration), cell viability
Procedure: Cell culture and nanoparticle incubation. ERα(−) MDA-MB-231 and ERα(+) MCF-7 breast cancer cells (human adenocarcinoma, ATCC) or ERα(+) human squamous cell carcinoma (43-45) (HSC-3) cells were cultured to 10^5 cells/cm^2 in DMEM growth media supplanted with 10% v/v heat-inactivated fetal bovine serum, penicillin (100 U/ml), streptomycin (100 μg/ml), 4.5 g/L glucose, […], without L-glutamine and phenol red at 37° C. in a 5% CO2 humidified atmosphere. Growth media was removed from the cell cultures and replaced with identical media containing gold nanoparticle conjugates heated to 37° C. at time=0 h.
Cell viability assay. Following incubation, growth media containing gold nanoparticle conjugates was removed and cells were rinsed twice in sterile Dulbecco's phosphate buffered saline (DPBS). Mitochondrial dehydrogenase activity was assessed by MTT or XTT spectrophotometric assay (Sigma TOX1, TOX2) following the manufacturer's instructions. The assay was performed using a SpectraMax Plus 384 microplate reader and statistical analysis was performed by t-test.

Molecule	steady-state blood plasma concentration ([1]; tamoxifen administered at 10 mg/day) [µM]	steady-state blood plasma concentration ([1]; tamoxifen administered at 20 mg/day) [µM]	in vitro cytotoxicity in the absence of laser treatment (MCF-7 cells)	IC50 ([2]; MCF-7, 24 h incubation) [µM]	IC50 ([2]; MCF-7, 36 h incubation) [µM]	IC50 ([2]; MCF-7, 48 h incubation) [µM]
CC/C(=C(\c1ccccc1)c1ccc(OCCN(C)C)cc1)c1ccccc1 [tamoxifen]	0.40	0.81	no appreciable in vitro cytotoxicity	–	–	–
Thiol-pegylated tamoxifen [TAM-PEG-SH]	–	–	–	3.6	1.4	1.1
